According to patent US5380714A, “2-furyl-triazalo [1,5-a]-[1,3,5]triazines and pyrazolo [2,3-a][1,3,5]triazines” (Imperial Chemical Industries PLC, priority 1991, dated 1995):

Target: T1, A2 Adenosine receptor (Rattus norvegicus, UniProt P30543)
T1 construct: membrane preparations derived from the rat phaeochromocytoma cell line PC 12; host or cells: PC 12 (rat phaeochromocytoma)
Test: A2 Adenosine receptor affinity test: displacement of [3H]-NECA from PC 12 cell membranes
Type: binding
Description: (a) A2 Adenosine receptor affinity test This test involves the ability of a test adenosine antagonist to displace the known adenosine mimetic agent [^3 H]-N-ethylcarboxamidoadenosine (NECA) from binding sites on membrane preparations derived from the rat phaeochromocytoma cell line PC 12 (available from the Beatson Institute, Glasgow). […] The membrane preparation is obtained as follows: Frozen pellets of PC12 cells are washed twice with ice cold, buffered, physiological saline and the cells recovered by centrifugation (1500 G) at 3° C. The separated cells are then suspended in hypotonic solution (distilled water), allowed to stand on ice for 30 minutes and are then carefully homogenized using a standard high-speed homogeniser with periodic ice-cooling to obtain a fine suspension. […] A1280). The mixture is then incubated at 37° C. After 20 minutes, the reaction is terminated by dilution with ice-cold buffer and transfer onto ice. The material obtained containing the cell membranes is recovered by centrifugation and washed by resuspension in buffer and recentrifugation. The pellet produced is then resuspended in ice-cold buffer using a hand-driven homogenizer. The resultant membrane suspension is frozen and stored under liquid nitrogen until required. […] After incubation, the samples are rapidly filtered over glass-fibre mats and the filter mats are washed to remove non-receptor-bound radioligand. Receptor-bound radioligand entrapped on the filter mats is then determined by liquid scintillation counting. Filtration and washing are carried out using a conventional vacuum filtration cell harvester. The specific binding (defined as the difference between the total binding and the non-specific binding) in the presence of the particular test compound is determined and compared with the control value.

[1] = read-out: displacement of control binding

T1 sequence (P30543 whole entry): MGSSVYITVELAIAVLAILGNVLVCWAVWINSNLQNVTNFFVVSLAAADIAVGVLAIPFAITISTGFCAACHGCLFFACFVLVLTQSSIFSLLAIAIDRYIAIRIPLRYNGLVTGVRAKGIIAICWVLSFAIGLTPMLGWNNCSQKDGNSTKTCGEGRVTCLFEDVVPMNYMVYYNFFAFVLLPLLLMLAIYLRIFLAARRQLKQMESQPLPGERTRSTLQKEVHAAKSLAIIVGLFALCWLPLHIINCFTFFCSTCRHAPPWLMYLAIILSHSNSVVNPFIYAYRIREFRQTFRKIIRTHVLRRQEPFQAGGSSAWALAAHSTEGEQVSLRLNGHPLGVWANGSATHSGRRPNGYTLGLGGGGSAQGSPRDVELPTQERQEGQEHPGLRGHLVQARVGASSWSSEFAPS

CN(C)CCN(C)S(=O)(=O)c1ccc(CCNc2nc(N)n3nc(-c4ccco4)nc3n2)cc1 [Example 1, 7-Amino-2-(2-furyl)-5-[2-[(4-dimethylaminoethyl-N,methylsulphonamido)phenyl]ethyl]amino[1,2,4]-triazolo[1,5-a][1,3,5]-triazine]
IC50 ([3H]-NECA displacement, PC 12 membranes, inferred from displacement at 10^-5 M and 10^-7 M, read-out: pIC50 (indicated by % displacement values) (converted)): < 100 nM
inhibition at 0.1 µM [1]: 77.7%
inhibition at 10 µM [1]: 93.7%
